Data taken from patent US20260262643A1, “HERBICIDAL BENZOXAZINES” (FMC CORPORATION, priority 2022, published 2026).

How the values were obtained:
[1] = system: ryegrass, Italian; test: Test C preemergence; type: in vivo, Lolium multiflorum; settings: preemergence, 0 to 100 scale (0 no effect, 100 complete control)
Summary of the method: (§1)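 Seeds in loam–sand blend received preemergence directed soil spray of test chemicals in non-phytotoxic solvent with surfactant; postemergence treatment was applied at one- to two-leaf stage (2–10 cm). After 10 days in greenhouse, injury rated visually versus untreated controls, 0 (no effect) to 100 (complete control).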

[2] = system: corn; test: Test C preemergence; type: in vivo, Zea mays; settings: preemergence, 0 to 100 scale (0 no effect, 100 complete control)
Summary of the method: as §1

[3] = system: rice; test: Test D flooded paddy test; type: in vivo, Oryza sativa; settings: 250 g ai/ha, applied to paddy water, visual rating after 13 to 14 days, scale 0 to 100 (0 no effect, 100 complete control)
Summary of the method: (§2)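 Plants at the 2-leaf stage were grown in pots flooded to 3 cm, and compound was applied directly into the paddy water, with depth kept throughout. After 13–14 days in a greenhouse, injury was rated visually against untreated controls on a 0–100 scale (100 = complete control); a dash means not tested.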

[4] = system: blackgrass; test: Test C postemergence; type: in vivo, Alopecurus myosuroides; settings: 10 days
Summary of the method: as §1

[5] = system: oat, wild; test: Test C preemergence; type: in vivo, Avena fatua; settings: preemergence, 0 to 100 scale (0 no effect, 100 complete control)
Summary of the method: as §1

[6] = system: ducksalad; test: Test D flooded paddy test; type: in vivo, Heteranthera limosa; settings: 250 g ai/ha, applied to paddy water, visual rating after 13 to 14 days, scale 0 to 100 (0 no effect, 100 complete control)
Summary of the method: as §2

[7] = system: galium; test: Test C postemergence; type: in vivo, Galium aparine; settings: 10 days
Summary of the method: as §1

[8] = system: green foxtail; test: Test C preemergence; type: in vivo, Setaria viridis; settings: preemergence, 0 to 100 scale (0 no effect, 100 complete control)
Summary of the method: as §1

[9] = system: ragweed; test: Test C preemergence; type: in vivo, Ambrosia artemisiifolia; settings: preemergence, 0 to 100 scale (0 no effect, 100 complete control)
Summary of the method: as §1

[10] = system: wheat; test: Test C postemergence; type: in vivo, Triticum aestivum; settings: 125 g ai/ha, postemergence, 10 days; 0 to 100 scale, 0 no effect, 100 complete control
Summary of the method: as §1

[11] = system: kochia; test: Test C preemergence; type: in vivo, Bassia scoparia; settings: preemergence, 0 to 100 scale (0 no effect, 100 complete control)
Summary of the method: as §1

[12] = system: ragweed; test: Test C postemergence; type: in vivo, Ambrosia artemisiifolia; settings: 125 g ai/ha, postemergence, 10 days; 0 to 100 scale, 0 no effect, 100 complete control
Summary of the method: as §1

[13] = system: pigweed, palmer; test: Test C postemergence; type: in vivo, Amaranthus palmeri; settings: 125 g ai/ha, postemergence, 10 days; 0 to 100 scale, 0 no effect, 100 complete control
Summary of the method: as §1

[14] = system: oat, wild; test: Test C postemergence; type: in vivo, Avena fatua; settings: 125 g ai/ha, postemergence, 10 days; 0 to 100 scale, 0 no effect, 100 complete control
Summary of the method: as §1

[15] = system: ryegrass, Italian; test: Test C postemergence; type: in vivo, Lolium multiflorum; settings: 125 g ai/ha, postemergence, 10 days; 0 to 100 scale, 0 no effect, 100 complete control
Summary of the method: as §1

[16] = system: blackgrass; test: Test C preemergence; type: in vivo, Alopecurus myosuroides; settings: 0 to 100 scale (0 no effect, 100 complete control)
Summary of the method: as §1

[17] = system: barnyardgrass; test: Test D flooded paddy test; type: in vivo, Echinochloa crus-galli; settings: 250 g ai/ha, applied to paddy water, visual rating after 13 to 14 days, scale 0 to 100 (0 no effect, 100 complete control)
Summary of the method: as §2

[18] = system: soybean; test: Test C preemergence; type: in vivo, Glycine max; settings: preemergence, 0 to 100 scale (0 no effect, 100 complete control)
Summary of the method: as §1

[19] = system: green foxtail; test: Test C postemergence; type: in vivo, Setaria viridis; settings: 10 days
Summary of the method: as §1

[20] = system: pigweed, palmer; test: Test C preemergence; type: in vivo, Amaranthus palmeri; settings: preemergence, 0 to 100 scale (0 no effect, 100 complete control)
Summary of the method: as §1

[21] = system: sedge, umbrella; test: Test D flooded paddy test; type: in vivo, Cyperus difformis; settings: 250 g ai/ha, applied to paddy water, visual rating after 13 to 14 days, scale 0 to 100 (0 no effect, 100 complete control)
Summary of the method: as §2

[22] = system: barnyardgrass; test: Test C postemergence; type: in vivo, Echinochloa crusgalli; settings: 10 days
Summary of the method: as §1

[23] = system: horseweed; test: Test C postemergence; type: in vivo, Erigeron canadensis; settings: 10 days
Summary of the method: as §1

[24] = system: corn; test: Test C postemergence; type: in vivo, Zea mays; settings: 10 days
Summary of the method: as §1

[25] = system: soybean; test: Test C postemergence; type: in vivo, Glycine max; settings: 125 g ai/ha, postemergence, 10 days; 0 to 100 scale, 0 no effect, 100 complete control
Summary of the method: as §1

[26] = system: wheat; test: Test C preemergence; type: in vivo, Triticum aestivum; settings: preemergence, 0 to 100 scale (0 no effect, 100 complete control)
Summary of the method: as §1

[27] = system: kochia; test: Test C postemergence; type: in vivo, Bassia scoparia; settings: 125 g ai/ha, postemergence, 10 days; 0 to 100 scale, 0 no effect, 100 complete control
Summary of the method: as §1

[28] = system: barnyardgrass; test: Test C preemergence; type: in vivo, Echinochloa crusgalli; settings: 0 to 100 scale (0 no effect, 100 complete control)
Summary of the method: as §1

[29] = 125 g ai/ha, postemergence, 0 to 100 scale, 0 no effect, 100 complete control
[30] = Postemergence, 500 g ai/ha, visual 0 to 100 scale (0 no effect, 100 complete control)
[31] = Preemergence, 500 g ai/ha, visual rating after 10 days
[32] = Test C, preemergence, 125 g ai/ha

COC[C@H]1CN(C(=O)c2cc(-n3cnc(C(C)(C)O)n3)ccc2C)c2cccc(Cl)c2O1 [Compound 276]
Ryegrass, Italian plant response rating ([1]; 500 g ai/ha): 90 | Ryegrass, Italian plant response rating ([1]; Test C, 125 g ai/ha): 90 | Corn plant response rating ([2]; 500 g ai/ha): 90 | Corn plant response rating ([2]; Test C, 125 g ai/ha): 50 | Plant response rating, Rice (Flood) [3]: 20 | Plant response rating, Blackgrass [4, 29]: 60 | Plant response rating, Blackgrass [4, 30]: 90 | Oat, Wild plant response rating ([5]; 500 g ai/ha): 90 | Oat, Wild plant response rating ([5]; Test C, 125 g ai/ha): 80 | Plant response rating, Ducksalad (Flood) [6]: 70 | Plant response rating, Galium [7, 29]: 100 | Plant response rating, Galium [7, 30]: 100 | Foxtail, Green plant response rating ([8]; 500 g ai/ha): 100 | Foxtail, Green plant response rating ([8]; Test C, 125 g ai/ha): 100 | Ragweed plant response rating ([9]; 500 g ai/ha): 80 | Ragweed plant response rating ([9]; Test C, 125 g ai/ha): 60 | Plant response rating, Wheat [10]: 60 | Kochia plant response rating ([11]; 500 g ai/ha): 90 | Kochia plant response rating ([11]; Test C, 125 g ai/ha): 90 | Plant response rating, Ragweed [12]: 60 | Plant response rating, Pigweed, Palmer [13]: 60 | Plant response rating, Oat, Wild [14]: 80 | Plant response rating, Ryegrass, Italian [15]: 80 | Plant response rating, Blackgrass [16, 31]: 90 | Blackgrass plant response rating [16, 32]: 90 | Plant response rating, Barnyardgrass (Flood) [17]: 35 | Soybean plant response rating ([18]; 500 g ai/ha): 100 | Soybean plant response rating ([18]; Test C, 125 g ai/ha): 100 | Plant response rating, Foxtail, Green [19, 29]: 40 | Plant response rating, Foxtail, Green [19, 30]: 90 | Pigweed, Palmer plant response rating ([20]; 500 g ai/ha): 100 | Pigweed, Palmer plant response rating ([20]; Test C, 125 g ai/ha): 100 | Plant response rating, Sedge, Umbrella (Flood) [21]: 80 | Plant response rating, Barnyardgrass [22, 29]: 30 | Plant response rating, Barnyardgrass [22, 30]: 90 | Plant response rating, Horseweed [23, 29]: 50 | Plant response rating, Horseweed [23, 30]: 40 | Plant response rating, Corn [24, 29]: 50 | Plant response rating, Corn [24, 30]: 90 | Plant response rating, Soybean [25]: 100 | Wheat plant response rating ([26]; 500 g ai/ha): 90 | Wheat plant response rating ([26]; Test C, 125 g ai/ha): 80 | Plant response rating, Kochia [27]: 70 | Plant response rating, Barnyardgrass [28, 31]: 100 | Barnyardgrass plant response rating [28, 32]: 90
